Results published in ChEMBL document CHEMBL1201862, “PubChem BioAssay data set” (2004).
Active and inactive are the calls of the source.

Experiments:
[1] = target: T1, Caspase-3 (Homo sapiens, UniProt P42574); format: functional
T1 sequence (P42574 whole entry): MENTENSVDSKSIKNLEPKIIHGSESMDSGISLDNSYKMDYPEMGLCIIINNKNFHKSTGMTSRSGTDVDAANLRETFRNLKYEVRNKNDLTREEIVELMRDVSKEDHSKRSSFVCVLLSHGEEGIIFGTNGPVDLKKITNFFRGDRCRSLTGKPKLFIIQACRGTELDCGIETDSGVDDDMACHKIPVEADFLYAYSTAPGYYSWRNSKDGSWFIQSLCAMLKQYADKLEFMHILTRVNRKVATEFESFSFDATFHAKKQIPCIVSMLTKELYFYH

[2] = target: T2, Sentrin-specific protease 7 (Homo sapiens, UniProt Q9BQF6); format: functional;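 also: Luminescence-based dose-response confirmation of ultra-high-throughput screening hits, measuring inhibition of SENP7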
T2 sequence (Q9BQF6 whole entry): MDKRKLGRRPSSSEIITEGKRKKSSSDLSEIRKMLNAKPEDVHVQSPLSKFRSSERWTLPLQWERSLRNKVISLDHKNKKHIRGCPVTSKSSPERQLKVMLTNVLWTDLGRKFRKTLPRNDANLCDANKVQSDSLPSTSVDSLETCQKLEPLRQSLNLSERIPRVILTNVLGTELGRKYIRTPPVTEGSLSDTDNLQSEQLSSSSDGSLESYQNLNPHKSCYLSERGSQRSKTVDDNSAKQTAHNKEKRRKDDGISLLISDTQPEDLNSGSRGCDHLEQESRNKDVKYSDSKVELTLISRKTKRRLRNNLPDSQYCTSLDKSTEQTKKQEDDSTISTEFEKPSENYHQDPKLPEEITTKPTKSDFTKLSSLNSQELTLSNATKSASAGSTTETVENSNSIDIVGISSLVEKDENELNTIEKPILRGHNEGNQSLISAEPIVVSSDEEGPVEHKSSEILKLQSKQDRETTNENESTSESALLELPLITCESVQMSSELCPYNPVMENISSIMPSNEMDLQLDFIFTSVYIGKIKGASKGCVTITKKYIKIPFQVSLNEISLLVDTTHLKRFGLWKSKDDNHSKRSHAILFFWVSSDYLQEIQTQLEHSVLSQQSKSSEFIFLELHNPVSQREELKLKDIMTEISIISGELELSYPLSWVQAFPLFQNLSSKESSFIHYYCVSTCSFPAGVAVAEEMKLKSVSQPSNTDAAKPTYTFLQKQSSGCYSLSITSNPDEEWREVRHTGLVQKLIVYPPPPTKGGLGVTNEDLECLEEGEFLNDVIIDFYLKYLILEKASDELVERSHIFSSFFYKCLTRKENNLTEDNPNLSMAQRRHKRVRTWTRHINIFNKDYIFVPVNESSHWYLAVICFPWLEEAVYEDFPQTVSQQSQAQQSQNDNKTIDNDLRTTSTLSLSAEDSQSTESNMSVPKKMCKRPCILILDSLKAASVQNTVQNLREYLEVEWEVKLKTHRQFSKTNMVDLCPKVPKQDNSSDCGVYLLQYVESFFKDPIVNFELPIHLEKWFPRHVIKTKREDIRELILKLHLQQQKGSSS

[3] = target: T3, Sentrin-specific protease 6 (Homo sapiens, UniProt Q9GZR1); format: functional
T3 sequence (Q9GZR1 whole entry): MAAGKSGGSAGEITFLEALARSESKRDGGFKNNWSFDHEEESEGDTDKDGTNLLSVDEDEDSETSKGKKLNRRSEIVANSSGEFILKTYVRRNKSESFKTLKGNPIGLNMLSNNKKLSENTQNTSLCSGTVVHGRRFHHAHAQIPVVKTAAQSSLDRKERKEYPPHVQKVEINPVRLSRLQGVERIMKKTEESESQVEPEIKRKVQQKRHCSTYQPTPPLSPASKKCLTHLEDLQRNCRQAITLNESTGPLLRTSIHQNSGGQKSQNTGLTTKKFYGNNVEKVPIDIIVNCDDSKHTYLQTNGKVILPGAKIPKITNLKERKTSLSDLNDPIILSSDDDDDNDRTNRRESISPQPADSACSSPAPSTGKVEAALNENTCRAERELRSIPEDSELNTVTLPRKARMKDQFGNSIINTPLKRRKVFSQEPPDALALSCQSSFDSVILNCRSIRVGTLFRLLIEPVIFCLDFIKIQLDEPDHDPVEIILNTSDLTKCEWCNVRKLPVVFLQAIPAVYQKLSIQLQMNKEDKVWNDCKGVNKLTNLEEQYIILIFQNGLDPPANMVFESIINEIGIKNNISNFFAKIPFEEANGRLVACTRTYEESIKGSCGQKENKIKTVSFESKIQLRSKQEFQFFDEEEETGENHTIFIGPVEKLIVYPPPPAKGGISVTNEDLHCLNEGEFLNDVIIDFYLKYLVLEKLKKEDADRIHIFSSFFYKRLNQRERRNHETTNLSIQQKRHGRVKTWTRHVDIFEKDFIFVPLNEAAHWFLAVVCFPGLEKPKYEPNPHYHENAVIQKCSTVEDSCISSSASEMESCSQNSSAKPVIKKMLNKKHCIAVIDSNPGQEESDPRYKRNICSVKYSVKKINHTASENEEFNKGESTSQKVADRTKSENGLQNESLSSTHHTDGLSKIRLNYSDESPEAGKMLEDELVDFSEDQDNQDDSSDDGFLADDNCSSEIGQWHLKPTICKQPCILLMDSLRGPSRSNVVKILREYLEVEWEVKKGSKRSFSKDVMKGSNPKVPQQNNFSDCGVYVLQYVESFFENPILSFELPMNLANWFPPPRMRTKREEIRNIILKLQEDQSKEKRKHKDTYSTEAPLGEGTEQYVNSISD

[4] = target: T4, Sentrin-specific protease 8 (Homo sapiens, UniProt Q96LD8); format: functional;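 also: luminescence read-out of SENP8 inhibition, dose-response confirmation following an ultra-high-throughput screen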
T4 sequence (Q96LD8 whole entry): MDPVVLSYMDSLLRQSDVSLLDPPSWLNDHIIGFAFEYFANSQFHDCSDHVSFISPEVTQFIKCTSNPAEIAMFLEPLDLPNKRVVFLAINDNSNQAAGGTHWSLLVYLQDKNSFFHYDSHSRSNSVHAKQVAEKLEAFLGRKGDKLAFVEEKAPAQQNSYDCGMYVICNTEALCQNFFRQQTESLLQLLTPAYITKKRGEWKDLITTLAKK

[5] = target: T4, Sentrin-specific protease 8; assay: SENP8 protease inhibitors, SAR follow-up, biochemical, luminescence (AID 504501); format: functional
[6] = target: T1, Caspase-3; assay: SAR Analysis of small molecule inhibitors of Sentrin-specific proteases (SENPs) using a Caspase-3 Selectivity assay. [Related pubchem assays (depositor defined):AID2540, AID2599, AID434973, AID489001]; format: functional
[7] = target: T3, Sentrin-specific protease 6; assay: SAR Analysis of small molecule inhibitors of Sentrin-specific protease 6 (SENP6) using a Luminescent assay. [Related pubchem assays (depositor defined):AID2582, AID2599]; format: functional
[8] = target: T2, Sentrin-specific protease 7; assay: SENP7 protease inhibitors, SAR follow-up, biochemical, luminescence (AID 504497); format: functional
[9] = NIH-3T3 fibroblast cytotoxicity, dose response, cytotoxicity control, cell-based, fluorescence, Alamar Blue, secondary assay (AID 2327); format: functional;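 also: NIH-3T3 mouse fibroblasts cultured with fluconazole at 8 µg/mL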
[10] = C. albicans growth with fluconazole, confirmation, fluorescence, retest (AID 2467); format: functional, cell-based
[11] = target: T5, Serine/threonine-protein phosphatase (Candida dubliniensis (strain CD36 / CBS 7987 / NCPF 3949 / NRRLY-17841) (Yeast), UniProt B9W6M3); assay: calcineurin pathway inhibitors in yeast reporter, dose response, S. cerevisiae, CDRE-lacZ, luminescence, secondary (AID 2388); format: functional, cell-based;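 also: yeast reporter cells carrying a calcineurin-responsive lacZ construct stimulated with calcium chloride; luminescent beta-galactosidase reporter signal in whole cells rather than isolated phosphatase activity; potency for inhibition where a drop in reporter signal means calcineurin blockade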
T5 sequence (B9W6M3 whole entry): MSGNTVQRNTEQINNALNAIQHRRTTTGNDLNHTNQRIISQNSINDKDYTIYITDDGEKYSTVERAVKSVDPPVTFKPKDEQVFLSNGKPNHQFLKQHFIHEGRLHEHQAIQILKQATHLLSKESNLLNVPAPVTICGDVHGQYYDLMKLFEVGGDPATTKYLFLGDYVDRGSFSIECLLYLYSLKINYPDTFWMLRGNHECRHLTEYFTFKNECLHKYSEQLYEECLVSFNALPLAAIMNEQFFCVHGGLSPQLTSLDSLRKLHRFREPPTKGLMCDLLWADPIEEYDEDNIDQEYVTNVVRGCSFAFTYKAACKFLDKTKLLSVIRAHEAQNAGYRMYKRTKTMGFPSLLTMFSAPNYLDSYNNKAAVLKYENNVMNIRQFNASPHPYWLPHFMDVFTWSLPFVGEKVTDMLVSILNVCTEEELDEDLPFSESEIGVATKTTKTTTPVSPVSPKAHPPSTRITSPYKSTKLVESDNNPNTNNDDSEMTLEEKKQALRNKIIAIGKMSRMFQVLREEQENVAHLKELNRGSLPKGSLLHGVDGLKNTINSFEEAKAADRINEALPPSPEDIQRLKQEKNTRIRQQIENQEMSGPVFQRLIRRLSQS

[12] = target: Cyclin-dependent kinase 5/CDK5 activator 1 (Homo sapiens, UniProt Q00535); assay: CDK5/p35 kinase inhibitors, dose response, biochemical, cherry-picked samples, set 2 (AID 504545)
[13] = target: ATP-dependent molecular chaperone HSP82 (Candida albicans (strain WO-1) (Yeast), UniProt C4YTQ8); assay: loss of DOC-induced GRE-beta-galactosidase reporter signal, dose response, Hsp90 inhibitor project, S. cerevisiae, luminescence (AID 2400); format: functional, cell-based;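 also: beta-galactosidase luminescence from glucocorticoid response element reporter as proxy for Hsp90 function; inhibitor potency where signal loss means Hsp90 inhibition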
[14] = tested on: Streptococcus sp. 'group A'; assay: growth inhibition of control SK(-) GAS strain, dose response, counter-screen for streptokinase expression inhibitor project, luminescence, kanamycin, BacTiterGlo, confirmation (AID 1900); format: functional, organism-based
[15] = target: T6, Streptokinase A (Streptococcus pyogenes serotype M1, UniProt P10520); assay: S. pyogenes streptokinase expression inhibitors, potency, dose response, plasminogen activation absorbance, OD405 (AID 1914); format: functional, Streptococcus pyogenes M1 GAS;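 also: secreted streptokinase activity via plasminogen activation per viability signal from cell pellet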
T6 sequence (P10520 whole entry): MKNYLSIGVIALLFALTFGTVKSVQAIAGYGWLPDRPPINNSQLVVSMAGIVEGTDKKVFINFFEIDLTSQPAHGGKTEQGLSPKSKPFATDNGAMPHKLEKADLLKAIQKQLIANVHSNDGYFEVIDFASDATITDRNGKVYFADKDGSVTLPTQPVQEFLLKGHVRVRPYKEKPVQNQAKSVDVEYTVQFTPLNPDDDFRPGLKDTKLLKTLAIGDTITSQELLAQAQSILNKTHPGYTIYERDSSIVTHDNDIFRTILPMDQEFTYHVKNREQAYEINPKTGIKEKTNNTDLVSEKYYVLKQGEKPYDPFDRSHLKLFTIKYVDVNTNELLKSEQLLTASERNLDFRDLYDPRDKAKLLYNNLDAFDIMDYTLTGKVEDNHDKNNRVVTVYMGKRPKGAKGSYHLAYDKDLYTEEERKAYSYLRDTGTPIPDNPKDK

[16] = target: G-protein coupled receptor 55 (Homo sapiens, UniProt Q9Y2T6); assay: GPR55 antagonists blocking LPI-driven arrestin recruitment, primary screen, imaging, U2OS, beta-arrestin-GFP, LPI agonist (AID 2013); format: functional;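 also: antagonist potency measured as reduced agonist-driven arrestin aggregation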
[17] = tested on: Streptococcus; assay: Group A Streptococcus viability loss, dose response, counter-screen for streptokinase expression inhibitor project, luminescence, BacTiterGlo (AID 1915); format: functional, organism-based;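 also: potency for reduction of bacterial viability or growth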
[18] = tested on: HEK293; assay: inhibitors of LMP1-driven NF-kB reporter, dose response, cell-based, HEK293, luciferase, cherry-pick (AID 588343); format: functional; conditions: Homo sapiens
[19] = LGR2 antagonists, dose response, cell-based, HEK293, CRE-luciferase reporter, cherry pick, set 2 (AID 743343); format: functional;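 also: transfected cells were stimulated with diluted bursicon conditioned medium after compound addition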
[20] = MC4R antagonists, dose response, counter-screen for LGR2 antagonist project, cell-based, plate reader, cherry pick (AID 743444); format: functional;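 also: transfected HEK 293 cells stimulated with alpha-MSH peptide; potency of inhibitors of the alpha-MSH evoked signal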
[21] = tested on: Vero; assay: Vero cell cytotoxicity, cytotoxicity control for flavivirus capping enzyme inhibitors (AID 588742); format: functional; conditions: Chlorocebus sabaeus

Chain of Cyclin-dependent kinase 5/CDK5 activator 1 (Q00535 whole entry): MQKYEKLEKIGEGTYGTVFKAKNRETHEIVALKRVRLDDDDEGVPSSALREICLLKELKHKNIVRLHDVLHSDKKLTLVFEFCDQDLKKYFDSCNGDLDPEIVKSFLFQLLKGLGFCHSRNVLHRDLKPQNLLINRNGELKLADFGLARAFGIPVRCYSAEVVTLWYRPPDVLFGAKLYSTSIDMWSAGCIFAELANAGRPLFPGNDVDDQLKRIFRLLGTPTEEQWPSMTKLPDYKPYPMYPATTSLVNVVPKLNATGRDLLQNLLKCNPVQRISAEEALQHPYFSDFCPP
Chain of Cyclin-dependent kinase 5/CDK5 activator 1 (Q15078 whole entry, further chain): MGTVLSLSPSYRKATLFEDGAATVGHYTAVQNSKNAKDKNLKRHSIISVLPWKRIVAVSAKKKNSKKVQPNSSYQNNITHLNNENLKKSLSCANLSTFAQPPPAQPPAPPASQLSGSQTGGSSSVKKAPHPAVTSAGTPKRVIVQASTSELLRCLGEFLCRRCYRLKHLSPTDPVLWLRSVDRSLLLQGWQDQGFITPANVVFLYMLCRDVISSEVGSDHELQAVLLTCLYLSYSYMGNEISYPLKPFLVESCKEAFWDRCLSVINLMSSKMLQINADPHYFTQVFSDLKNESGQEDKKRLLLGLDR
Chain of G-protein coupled receptor 55 (Q9Y2T6 whole entry): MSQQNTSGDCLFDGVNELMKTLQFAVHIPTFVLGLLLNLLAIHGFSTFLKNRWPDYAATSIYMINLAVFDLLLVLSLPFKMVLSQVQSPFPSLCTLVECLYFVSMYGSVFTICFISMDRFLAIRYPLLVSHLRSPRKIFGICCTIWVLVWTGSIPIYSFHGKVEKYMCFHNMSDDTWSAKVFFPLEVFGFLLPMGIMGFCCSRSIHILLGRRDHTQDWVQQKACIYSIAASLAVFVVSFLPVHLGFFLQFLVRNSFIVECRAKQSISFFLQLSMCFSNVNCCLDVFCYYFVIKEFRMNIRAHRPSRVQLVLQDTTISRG
Chain of ATP-dependent molecular chaperone HSP82 (C4YTQ8 whole entry): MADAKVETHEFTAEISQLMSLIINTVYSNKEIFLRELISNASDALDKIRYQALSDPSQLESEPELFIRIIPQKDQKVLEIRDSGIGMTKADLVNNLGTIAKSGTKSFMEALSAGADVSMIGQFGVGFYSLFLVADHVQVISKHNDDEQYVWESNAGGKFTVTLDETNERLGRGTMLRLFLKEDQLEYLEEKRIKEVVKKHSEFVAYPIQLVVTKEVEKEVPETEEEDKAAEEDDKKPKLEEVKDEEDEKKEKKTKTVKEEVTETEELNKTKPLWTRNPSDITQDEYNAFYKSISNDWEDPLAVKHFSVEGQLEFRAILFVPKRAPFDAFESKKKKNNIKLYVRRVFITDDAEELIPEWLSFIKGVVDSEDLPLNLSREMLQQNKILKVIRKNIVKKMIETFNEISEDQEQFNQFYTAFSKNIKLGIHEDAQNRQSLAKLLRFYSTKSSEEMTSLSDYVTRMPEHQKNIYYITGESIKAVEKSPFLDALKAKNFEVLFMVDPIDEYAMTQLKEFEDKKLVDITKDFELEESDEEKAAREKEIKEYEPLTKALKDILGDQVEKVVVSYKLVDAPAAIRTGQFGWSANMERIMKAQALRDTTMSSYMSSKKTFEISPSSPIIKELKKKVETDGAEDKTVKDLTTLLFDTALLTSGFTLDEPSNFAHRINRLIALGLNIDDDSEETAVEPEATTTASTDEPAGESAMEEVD

O=C(O)c1ccc(OC2CSC2)cc1
active: IC50 [1] 94.9 µM | IC50 [3] 13 µM | IC50 [4] 8.43 µM | IC50 [5] 30 µM | IC50 [7] 18.7 µM
inactive: IC50 [2] > 100 µM | IC50 [6] > 99 µM | IC50 [8] > 99 µM

Clc1ccc2oc(-c3ccccc3)nc2c1
inactive: IC50 [4] > 100 µM
active: IC50 [1] 14.2 µM | IC50 [2] 7.93 µM | IC50 [3] 22 µM

CCNc1nc(N)nc(-c2cc(Cl)ccc2O)n1
inactive: EC50 [11] > 180 µM
active: EC50 [9] 40.2 µM | EC50 [10] 0.53 µM | AC50 [12] 7.06 µM | IC50 [1] 18.9 µM | IC50 [2] 3.99 µM | IC50 [3] 12 µM | IC50 [4] 13.7 µM | EC50 [13] 20.1 µM

COc1ccc(NC2=NCC(Cc3ccc(Br)cc3)S2)cc1 (stereo not drawn)
> 150 µM (not active): EC50 [15] | EC50 [17]
active: EC50 [14] 9.96 µM | IC50 [16] 1.31 µM | AC50 [18] 183 µM

Cc1cnc(NC(=O)c2ccc(OCC3CCCO3)cc2)s1 (stereo not drawn)
active: AC50 [18] 1.93 µM | AC50 [19] 4.84 µM | AC50 [20] 5.51 µM

CCOC(=O)c1cn2nc(N3CCCCC3)ccc2n1
active: AC50 [18] 2.8 µM | AC50 [19] 2.62 µM | AC50 [20] 5.1 µM

O=C1C(=Cc2ccccc2[N+](=O)[O-])Cc2ccccc21
active: CC50 [21] 20.9 µM
